Assay results: US7754718B2 (priority 2004, dated 2010)
Like-named read-outs stand apart in the source and are kept apart here.

Key:
[1] = Cell cytotoxicity assay on MT-2 cells; type: cell-based; conditions: human, read-out: Cytotoxity (ID50, μM) MT-2
Experimental: (§1) Cytotoxicities of test compounds on MT-2 (Mellors et al., 1992 Mol. Pharmacol. 41:446-451) and CEM (Grove et al., 1995, Cancer Res. 55:3008-3011) cells were determined according to the previously reported procedures. Hepg2 cells were seeded at a density of 10^4 cells/ml/well in 24-well plates and cultured in MEME supplemented with 10% FBS at 37° C. and 5% CO2. Each test compound at different concentrations was added on the second day of the culture and the cells were incubated for another 3 days. At the end of the incubation period, the medium was removed and 0.5 ml of 0.5% methylene blue in 50% ethanol (v/v) was added to each well and set at room temperature for 30-60 minutes. The methylene blue was removed; the plates were washed with water and allowed to air dry. Once dry, 1% sarcosyl was added to dissolve the stained cell layer. The absorbance at 595 nm was measured with a microplate reader (Molecular Devices Corp. Sunnyvale, Calif.). The cytotoxicity to CEM cell was calculated as described previously (Grove et al., 1995, Cancer Res. 55 (14): 3008-3011).

[2] = Cell cytotoxicity assay on CEM cells; type: cell-based; conditions: human, read-out: Cytotoxity (ID50, μM) CEM
Experimental: as §1

HIV = assay: In vitro antiviral assay for HIV; type: cell-based, human immunodeficiency virus; conditions: Human immunodeficiency virus 1, read-out: Antiviral Activities (EC50, μM) HIV, in vitro; (T) after a value means toxic
Experimental: (§2) The antiviral assays for HBV, (Doong et al., 1991, Proc. Natl. Acad. Sci. U.S.A. 88:8495-8499) HSV-1, (Bastow et al., 1983, Antimicrob. Agents Chemother. 23: 914-917) HSV-2, (Bastow et al., 1983, Antimicrob. Agents Chemother. 23:914-917) EBV, (Yao et al., 1993, Antimicrob. Agents Chemother. 37:1420-1425), CMV (Andreoni et al., 2002, J. Med. Virol. 67:33-40) and HIV (Mellors et al., 1992, Mol. Pharmacol. 41: 446-451) were performed according to the previously reported procedures. Anti-HCV activities were tested in Huh-Luc/neo cell line. Cells were seeded into 48-well plates and grown until confluent. Different concentrations of drugs were added into media (DMEM, 10% dFBS) and incubated for 3 days. At the end of 3-day treatment, medium were removed and 50 μl of Passive lysis buffer (Promega) were added. Cell lysate was shaken at room temperature for 15 min. 30 μl/well of cell lysate was transferred to another 96-well plate, 100 μl/well of luciferase activity assay substrate was added into plate and read by a luminometer (Amersham) immediately.

HSV-2 = assay: In vitro antiviral assay for HSV-2; type: cell-based, Herpes Simplex Virus 2
Experimental: as §2

HBV = assay: In vitro antiviral assay for HBV (Table 1); type: cell-based, Hepatitis B virus; conditions: Hepatitis B virus, read-out: Antiviral Activities (EC50, μM) HBV
Experimental: as §2

EBV = assay: In vitro antiviral assay for EBV; type: cell-based, Epstein-Barr Virus; conditions: human gammaherpesvirus 4, read-out: Antiviral Activities (EC50, μM) EBV
Experimental: as §2

HSV-1 = assay: In vitro antiviral assay for HSV-1; type: cell-based, Herpes Simplex Virus 1
Experimental: as §2

HCV = assay: Anti-HCV activity in Huh-Luc/neo cell line, luciferase activity after 3-day treatment; type: cell-based, Hepatitis C virus; conditions: Hepatitis C virus, 72 h; for EC50: read-out: Antiviral Activities (EC50, μM) HCV
Experimental: as §2

[3] = Human alphaherpesvirus 2, read-out: Antiviral Activities (EC50, μM) HSV-2
[4] = Human alphaherpesvirus 1, read-out: Antiviral Activities (EC50, μM) HSV-1
[5] = Huh-Luc/neo cells, 3 days, given as a bound only
[6] = Huh-Luc/neo cells, 3 days, read-out: HCV percent of inhibition

Question: What does the source list for Nc1ccn([C@H]2CC[C@@H](CO)O2)c(=O)n1 [ddC, 2′,3′-Dideoxycytidine, reference compound]?
Answer: IC50 [1]: 70 µM; IC50 [2]: 5 µM; EC50 (HIV): 0.8 µM

Question: For O=C1NCc2c1cc1ccc3c(c1c2-c1ccc2c(c1)OCO2)OCO3 [Compound 18, 10-Benzo[1,3]dioxol-5-yl-8,9-dihydro-1,3-dioxa-8-aza-dicyclopenta[a,g]naphthalen-7-one], which EC50 (HSV-2; [3]) is on record?
Answer: 0.16 µM

Question: What about the IC50 [1] of the same compound?
Answer: 4 µM

Question: And the EC50 (HBV)?
Answer: 0.08 µM

Question: What about the IC50 [2] of the same compound?
Answer: 4.5 µM

Question: And the EC50 (HIV)?
Answer: > 4 µM

Question: What about the EC50 (EBV) of the same compound?
Answer: 11 µM

Question: And the EC50 (HSV-1; [4])?
Answer: 0.29 µM

Question: What about the inhibition at 1 µM (HCV; at 1 μM, Huh-Luc/neo cells, 3 days, read-out: HCV percent of inhibition) of the same compound?
Answer: 55%

Question: Which EC50 (HSV-2; [3]) does the source give for COc1ccc(-c2c(C(=O)O)c(C(N)=O)cc3ccc4c(c23)OCO4)cc1OC [Compound 15, 7-Carbamoyl-9-(3,4-dimethoxy-phenyl)-naphtho[1,2-d][1,3]dioxole-8-carboxylic acid] here?
Answer: > 3 µM

Question: And the IC50 [1]?
Answer: 10 µM

Question: And the EC50 (HBV)?
Answer: 0.8 µM

Question: What about the IC50 [2] of the same compound?
Answer: 3 µM

Question: And the EC50 (HIV)?
Answer: > 10 µM

Question: And the EC50 (EBV)?
Answer: > 20 µM

Question: What about the EC50 (HSV-1; [4]) of the same compound?
Answer: 0.8 µM

Question: And the inhibition at 3 µM (HCV; at 3 μM, Huh-Luc/neo cells, 3 days, read-out: HCV percent of inhibition)?
Answer: 64%

Question: What does the source list for NC(=O)c1cc2ccc3c(c2c(-c2ccc4c(c2)OCO4)c1C(N)=O)OCO3 [Compound 36, 9-Benzo[1,3]dioxol-5-yl-naphtho[1,2-d][1,3]dioxole-7,8-dicarboxylic acid diamide]?
Answer: EC50 (HSV-2; [3]): > 50 µM; IC50 [1]: > 100 µM; EC50 (HBV): > 20 µM; IC50 [2]: > 100 µM; EC50 (HIV): > 100 µM; EC50 (EBV): > 20 µM; EC50 (HSV-1; [4]): > 50 µM; EC50 (HCV; [5]): > 10 µM

Question: With O=C1c2cc3ccc4c(c3c(-c3ccc5c(c3)OCO5)c2CN1CCCOCc1ccccc1)OCO4 [Compound 20, 10-Benzo[1,3]dioxol-5-yl-8-(3-benzyloxy-propyl)-8,9-dihydro-1,3-dioxa-8-aza-dicyclopenta[a,g]naphthalen-7-one] as the compound, how does the EC50 (HSV-2; [3]) read?
Answer: > 20 µM

Question: What about the IC50 [1] of the same compound?
Answer: 28 µM

Question: What about the EC50 (HBV) of the same compound?
Answer: > 20 µM

Question: And the IC50 [2]?
Answer: 67 µM

Question: What about the EC50 (HIV) of the same compound?
Answer: > 28 µM

Question: What about the EC50 (EBV) of the same compound?
Answer: > 20 µM

Question: And the EC50 (HSV-1; [4])?
Answer: 13 µM

Question: What about the inhibition at 10 µM (HCV; [6]) of the same compound?
Answer: 85%

Question: What does the source list for CN1C(=O)c2cc3ccc4c(c3c(-c3ccc5c(c3)OCO5)c2C1=O)OCO4 [Compound 23]?
Answer: EC50 (HSV-2; [3]): > 50 µM; IC50 [1]: > 100 µM; EC50 (HBV): > 10 µM; IC50 [2]: > 100 µM; EC50 (HIV): > 100 µM; EC50 (EBV): > 20 µM; EC50 (HSV-1; [4]): > 50 µM; EC50 (HCV): > 10 µM

Question: Which results are given for CC(=O)NN1Cc2cc3ccc4c(c3c(-c3ccc5c(c3)OCO5)c2C1=O)OCO4 [Compound 27, N-(10-Benzo[1,3]dioxol-5-yl-9-oxo-7,9-dihydro-1,3-dioxa-8-aza-dicyclopenta[a,g]naphthalen-8-yl)-acetamide]?
Answer: EC50 (HSV-2; [3]): 40 µM; IC50 [1]: 25 µM; EC50 (HBV): > 20 µM; IC50 [2]: 32 µM; EC50 (HIV): > 25 µM; EC50 (EBV): > 20 µM; EC50 (HSV-1; [4]): 17 µM; inhibition at 10 µM (HCV; [6]): 25%

Question: For O=c1[nH][nH]c(=O)c2c(-c3ccc4c(c3)OCO4)c3c4c(ccc3cc12)OCO4 [Compound 28, 11-Benzo[1,3]dioxol-5-yl-8,9-dihydro-1,3-dioxa-8,9-diaza-cyclopenta[a]anthracene-7,10-dione], which EC50 (HSV-2; [3]) is on record?
Answer: 1.4 µM

Question: And the IC50 [1]?
Answer: 16 µM

Question: And the EC50 (HBV)?
Answer: 0.03 µM

Question: What about the IC50 [2] of the same compound?
Answer: 50 µM

Question: What about the EC50 (EBV) of the same compound?
Answer: > 25 µM

Question: And the EC50 (HSV-1; [4])?
Answer: 1.4 µM

Question: And the inhibition at 10 µM (HCV; [6])?
Answer: 74%

Question: For CN(C)C(=O)c1cc2ccc3c(c2c(-c2ccc4c(c2)OCO4)c1C(=O)O)OCO3 [Compound 14, 9-Benzo[1,3]dioxol-5-yl-7-dimethylcarbamoyl-naphtho[1,2-d][1,3]dioxole-8-carboxylic acid], which EC50 (HSV-2; [3]) is on record?
Answer: > 50 µM

Question: What about the IC50 [1] of the same compound?
Answer: 70 µM

Question: What about the EC50 (HBV) of the same compound?
Answer: > 10 µM

Question: And the IC50 [2]?
Answer: 76 µM

Question: And the EC50 (HIV)?
Answer: > 70 µM

Question: And the EC50 (EBV)?
Answer: > 20 µM

Question: What about the EC50 (HSV-1; [4]) of the same compound?
Answer: > 50 µM

Question: And the EC50 (HCV; [5])?
Answer: > 10 µM

Question: Which EC50 (HSV-2; in vitro, read-out: Antiviral Activities (EC50, μM) HSV-2) does the source give for Nc1nc2c(ncn2COCCO)c(=O)[nH]1 [ACV, reference compound] here?
Answer: 21 µM

Question: And the EC50 (HSV-1; in vitro, read-out: Antiviral Activities (EC50, μM) HSV-1)?
Answer: 8 µM
